In brackets after ≈: the same amount, converted by molar mass. Activity calls are given as the source filed them. The calls are words filed in the database; no cut-off is given here. Residues, ends and D or L forms follow the SMILES beside them. *: point of attachment. Stearoyl = CCCCCCCCCCCCCCCCCC(=O)*
What was measured:
[1] = test system: Staphylococcus aureus; assay: Antimicrobial activity against methicillin-resistant Staphylococcus aureus 113 after 18 hrs by broth microdilution method; format: functional
[2] = test system: Staphylococcus epidermidis; assay: Antimicrobial activity against Staphylococcus epidermidis ATCC 12228 after 18 hrs by broth microdilution method; format: functional
[3] = test system: Staphylococcus aureus; assay: Antimicrobial activity against Staphylococcus aureus ATCC 25923 after 18 hrs by broth microdilution method; format: functional
[4] = test system: Erythrocyte; assay: Hemolytic activity against mouse erythrocytes measured after 1 hr; format: ADME, cell-based
[5] = test system: Staphylococcus aureus; assay: Antimicrobial activity against Staphylococcus aureus ATCC 29213 after 18 hrs by broth microdilution method; format: functional
[6] = test system: Staphylococcus aureus; assay: Antimicrobial activity against methicillin-resistant Staphylococcus aureus 75 after 18 hrs by broth microdilution method; format: functional
[7] = Therapeutic index, ratio of MHC for mouse RBC to geometric mean of peptide MIC for Staphylococcus epidermidis ATCC 12228; format: toxicity; details: pooled result: one value given for 6 cell lines, strains, targets or settings, read-out: TI
[8] = test system: Bacillus subtilis; assay: Antimicrobial activity against Bacillus subtilis ATCC 23857 after 18 hrs by broth microdilution method; format: functional
[9] = test system: Staphylococcus aureus; assay: Antimicrobial activity against Staphylococcus aureus ATCC 25923 infected in neutropenia BALB/c mouse assessed as reduction in lung bacterial load at 10 to 20 mg/kg, ip administered staring from 2 hrs post infection and measured 8 hrs post-infected; format: functional, organism-based; details: dose 10-20 mg/kg, time 6.0 hrs
[10] = test system: Staphylococcus aureus; assay: Induction of reactive oxygen species generation in Staphylococcus aureus ATCC 25923 by […] dye based fluorescence assay; format: functional, organism-based
[11] = test system: Staphylococcus aureus; assay: Antimicrobial activity against Staphylococcus aureus ATCC 25923 infected in neutropenia BALB/c mouse assessed as reduction in bacterial load in liver at 10 to 20 mg/kg, ip administered staring from 2 hrs post infection and measured 8 hrs post-infected; format: functional, organism-based; details: dose 10-20 mg/kg, time 6.0 hrs
[12] = test system: Staphylococcus aureus; assay: Antibiofilm activity against ciprofloxacin-resistant Staphylococcus aureus ATCC 25923 at 0.5 to 8 uM after 24 hrs by crystal violet staining based assay; format: functional, organism-based; details: dose 0.5-8 µM
[13] = test system: Cell membrane; assay: Induction of cytoplasmic membrane disruption in Staphylococcus aureus ATCC 25923 measured for 15 mins by DiSC3-5 dye based fluorescence assay
[14] = test system: Staphylococcus aureus; assay: Antimicrobial activity against Staphylococcus aureus ATCC 25923 infected in neutropenia BALB/c mouse assessed as reduction in bacterial load in spleen at 10 to 20 mg/kg, ip administered staring from 2 hrs post infection and measured 8 hrs post-infected; format: functional, organism-based; details: dose 10-20 mg/kg, time 6.0 hrs
[15] = test system: Staphylococcus aureus; assay: Antibiofilm activity against Staphylococcus aureus ATCC 25923 at 0.5 to 8 uM after 24 hrs by crystal violet staining based assay; format: functional, organism-based; details: dose 0.5-8 µM
[16] = test system: Staphylococcus aureus; assay: Antimicrobial activity against Staphylococcus aureus ATCC 25923 assessed as bacterial killing preincubated for 4 hrs followed by replating on MHB agar and measured after 24 hrs by time kill assay; format: functional, organism-based; details: time 28.0 hrs
[17] = test system: Cell membrane; assay: Induction of membrane disruption in Staphylococcus aureus ATCC 25923 measured after 2 hrs by propidium iodide staining based confocal laser scanning microscopic analysis; format: subcellular
[18] = test system: Staphylococcus aureus; assay: Induction of nucleic acid leakage in Staphylococcus aureus ATCC 25923 at 4 times MIC; format: functional
[19] = test system: Mus musculus; assay: Antiinflammatory activity in Staphylococcus aureus ATCC 25923 infected neutropenia BALB/c mouse assessed as reduction in TNFalpha level in serum at 10 to 20 mg/kg, ip administered staring from 2 hrs post infection and measured 8 hrs post-infected; format: functional, organism-based; details: dose 10-20 mg/kg, time 6.0 hrs
[20] = Binding affinity to LTA (unknown origin) assessed as bacterial killing at 2 times MIC preincubated for 1 hr followed by Staphylococcus aureus ATCC 25923 addition and measured after 2 hrs by colony counting method; details: time 3.0 hrs
[21] = test system: Cell membrane; assay: Induction of membrane disruption in Staphylococcus aureus ATCC 25923 measured after 2 hrs by propidium iodide staining based flow cytometry
[22] = test system: Lipopolysaccharide (LPS); assay: Binding affinity to LPS (unknown origin) assessed as bacterial killing at 2 times MIC preincubated for 1 hr followed by Staphylococcus aureus ATCC 25923 addition and measured after 2 hrs by colony counting method; details: time 3.0 hrs
[23] = test system: Staphylococcus aureus; assay: Antimicrobial activity against Staphylococcus aureus ATCC 25923 infected in neutropenia BALB/c mouse assessed as reduction in bacterial load in kidney at 10 to 20 mg/kg, ip administered staring from 2 hrs post infection and measured 8 hrs post-infected; format: functional, organism-based; details: dose 10-20 mg/kg, time 6.0 hrs
[24] = test system: Cell membrane; assay: Induction of membrane disruption in Staphylococcus aureus ATCC 25923 assessed as PI-positive cells at 2 times MIC measured after 2 hrs by propidium iodide staining based flow cytometry relative to control
[25] = test system: Staphylococcus aureus; assay: Antimicrobial activity against Staphylococcus aureus ATCC 25923 assessed as bacterial killing at MIC preincubated for 4 hrs followed by replating on MHB agar and measured after 24 hrs by time kill assay; format: functional, organism-based; details: time 28.0 hrs
[26] = test system: Staphylococcus aureus; assay: Antimicrobial activity against Staphylococcus aureus ATCC 25923 assessed as bacterial killing at 2 times MIC preincubated for 2 hrs followed by replating on MHB agar and measured after 24 hrs by time kill assay; format: functional, organism-based; details: time 26.0 hrs
[27] = test system: Staphylococcus aureus; assay: Ratio of MIC for antimicrobial activity against Staphylococcus aureus ATCC 25923 in presence of 2.5% serum to MIC for antimicrobial activity against Staphylococcus aureus ATCC 25923 in absence of serum; format: functional
[28] = test system: Cell membrane; assay: Induction of membrane disruption in Staphylococcus aureus ATCC 25923 assessed as PI-positive cells at 4 times MIC measured after 2 hrs by propidium iodide staining based flow cytometry relative to control
[29] = test system: Staphylococcus aureus; assay: Antimicrobial activity against Staphylococcus aureus ATCC 25923 assessed as bacterial killing at 0.5 times MIC preincubated for 4 hrs followed by replating on MHB agar and measured after 24 hrs by time kill assay; format: functional, organism-based; details: time 28.0 hrs
[30] = test system: Staphylococcus aureus; assay: Antimicrobial activity against Staphylococcus aureus ATCC 25923 assessed as bacterial killing at 4 times MIC preincubated for 30 mins followed by replating on MHB agar and measured after 24 hrs by time kill assay; format: functional, organism-based; details: time 24.5 hrs
[31] = test system: Staphylococcus aureus; assay: Antimicrobial activity against Staphylococcus aureus ATCC 25923 at 0.5 times MIC after 15 passages by broth microdilution method; format: functional, organism-based
[32] = test system: Staphylococcus aureus; assay: Ratio of MIC for antimicrobial activity against Staphylococcus aureus ATCC 25923 in presence of 10% serum to MIC for antimicrobial activity against Staphylococcus aureus ATCC 25923 in absence of serum; format: functional
[33] = test system: Staphylococcus aureus; assay: Ratio of MIC for antimicrobial activity against Staphylococcus aureus ATCC 25923 in presence of 5% serum to MIC for antimicrobial activity against Staphylococcus aureus ATCC 25923 in absence of serum; format: functional
[34] = test system: HEK-293T; assay: Cytotoxicity against HEK293T cells assessed as reduction in cell viability at 1 uM measured after 24 hrs by MTT assay; format: cell-based; details: human
[35] = test system: Staphylococcus epidermidis; assay: Antimicrobial activity against Staphylococcus epidermidis ATCC 12228 at 0.5 times MIC after 15 passages by broth microdilution method; format: functional, organism-based

CCCCCCCCCCCCCCCCCC(=O)N[C@@H](CCCNC(=N)N)C(=O)N[C@@H](CCCNC(=N)N)C(=O)N[C@@H](CCCNC(=N)N)C(N)=O (Stearoyl-Arg-Arg-Arg-NH2)
MIC [1]: 2 µM (≈ 1.5 µg/mL) | MIC [2]: 8 µM (≈ 6.02 µg/mL) | MIC [3]: 4 µM (≈ 3.01 µg/mL) | MHC10 [4]: 32 µM | MIC [5]: 4 µM (≈ 3.01 µg/mL) | MIC [6]: 4 µM (≈ 3.01 µg/mL) | selectivity ratio [7]: 4 | MIC [8]: 8 µM (≈ 6.02 µg/mL)

CCCCCCCCCCCCCCCCCC(=O)N[C@@H](CCCNC(=N)N)C(=O)N[C@@H](CCCNC(=N)N)C(=O)N[C@@H](Cc1c[nH]c2ccccc12)C(N)=O (Stearoyl-Arg-Arg-Trp-NH2)
MIC [1]: 8 µM (≈ 6.26 µg/mL) | MIC [2]: 4 µM (≈ 3.13 µg/mL) | MIC [3]: 8 µM (≈ 6.26 µg/mL) | MHC10 [4]: 32 µM | MIC [5]: 8 µM (≈ 6.26 µg/mL) | MIC [6]: 16 µM (≈ 12.5 µg/mL) | selectivity ratio [7]: 3.69 | MIC [8]: 8 µM (≈ 6.26 µg/mL)

CCCCCCCCCCCCCCCCCC(=O)N[C@@H](CCCNC(=N)N)C(=O)N[C@@H](Cc1c[nH]c2ccccc12)C(=O)N[C@@H](CCCNC(=N)N)C(N)=O (Stearoyl-Arg-Trp-Arg-NH2)
MIC [1]: 8 µM (≈ 6.26 µg/mL) | MIC [2]: 8 µM (≈ 6.26 µg/mL) | MIC [3]: 16 µM (≈ 12.5 µg/mL) | MHC10 [4]: 32 µM | MIC [5]: 128 µM (≈ 100 µg/mL) | MIC [6]: 8 µM (≈ 6.26 µg/mL) | selectivity ratio [7]: 1.04 | MIC [8]: 16 µM (≈ 12.5 µg/mL)

CCCCCCCCCCCCCCCCCC(=O)N[C@@H](CCCNC(=N)N)C(=O)N[C@@H](Cc1c[nH]c2ccccc12)C(=O)N[C@@H](Cc1c[nH]c2ccccc12)C(N)=O (Stearoyl-Arg-Trp-Trp-NH2)
MIC [1]: > 128 µM | MIC [2]: 128 µM (≈ 104 µg/mL) | MIC [3]: > 128 µM | MHC10 [4]: 256 µM | MIC [5]: > 128 µM | MIC [6]: > 128 µM | selectivity ratio [7]: 1.09 | MIC [8]: > 128 µM

CCCCCCCCCCCCCCCCCC(=O)N[C@@H](Cc1c[nH]c2ccccc12)C(=O)N[C@@H](CCCNC(=N)N)C(=O)N[C@@H](CCCNC(=N)N)C(N)=O (Stearoyl-Trp-Arg-Arg-NH2)
MIC [1]: 16 µM (≈ 12.5 µg/mL) | MIC [2]: 8 µM (≈ 6.26 µg/mL) | MIC [3]: 16 µM (≈ 12.5 µg/mL) | MHC10 [4]: 32 µM | MIC [5]: 32 µM (≈ 25 µg/mL) | MIC [6]: 8 µM (≈ 6.26 µg/mL) | selectivity ratio [7]: 2 | MIC [8]: 16 µM (≈ 12.5 µg/mL)

O=C(O)c1cn(C2CC2)c2cc(N3CCNCC3)c(F)cc2c1=O [CIPROFLOXACIN]
MIC [1]: < 1 µM | Activity [9]: Active | Activity [10]: Active | Activity [11]: Active | Activity [12]: Active | Activity [13]: inactive | Activity [14]: Active | MIC [2]: < 1 µM | Activity [15]: Active | Activity [16]: inactive | Activity [17]: inactive | Activity [18]: Active | MIC [3]: 1 µM (≈ 0.331 µg/mL) | Activity [19]: Active | Activity [20]: inactive | MIC [5]: 1 µM (≈ 0.331 µg/mL) | Activity [21]: inactive | MIC [6]: 128 µM (≈ 42.4 µg/mL) | Activity [22]: inactive | MIC [8]: < 1 µM | Activity [23]: Active

CC[C@H](C)[C@H](NC(=O)CN)C(=O)NCC(=O)N[C@@H](C)C(=O)N[C@H](C(=O)N[C@@H](CC(C)C)C(=O)N[C@@H](CCCCN)C(=O)N[C@H](C(=O)N[C@@H](CC(C)C)C(=O)N[C@H](C(=O)N[C@H](C(=O)NCC(=O)N[C@@H](CC(C)C)C(=O)N1CCC[C@H]1C(=O)N[C@@H](C)C(=O)N[C@@H](CC(C)C)C(=O)N[C@H](C(=O)N[C@@H](CO)C(=O)N[C@@H](Cc1c[nH]c2ccccc12)C(=O)N[C@H](C(=O)N[C@@H](CCCCN)C(=O)N[C@@H](CCCNC(=N)N)C(=O)N[C@@H](CCCCN)C(=O)N[C@@H](CCCNC(=N)N)C(=O)N[C@@H](CCC(N)=O)C(=O)N[C@@H](CCC(N)=O)C(N)=O)[C@@H](C)CC)[C@@H](C)CC)[C@@H](C)O)[C@@H](C)O)C(C)C)C(C)C [MELITTIN]
Activity [24]: 91.9% | Activity [25]: Active | Activity [10]: Active | Activity [12]: Active | Activity [13]: Active | Activity [26]: Active | Ratio [27]: 2 | Activity [28]: 92.5% | Activity [15]: Active | Activity [29]: inactive | Activity [17]: Active | Activity [18]: inactive | Activity [30]: Active | Activity [20]: Active | MHC10 [4]: 2 µM | Activity [31]: Active | Ratio [32]: 2 | Ratio [33]: 2 | Activity [22]: Active | Activity [34]: Toxic | selectivity ratio [7]: 0.8 | Activity [35]: Active
